Laboratory results taken from patent US11549115B2, “Compositions and methods for regulated gene expression” (YALE UNIVERSITY, priority 2017, dated 2023).

What was measured:
sialidase BT0455 = experiment: Sialidase activity in murine fecal samples (pNP-SA hydrolysis, LC-MS); type: in vivo, Bacteroides thetaiotaomicron; details: mice carrying Bt^RS
Method: Groups of 6 germ-free Swiss Webster mice were orally gavaged with 1×10^9 CFU of the desired B. thetaiotaomicron strain. Fecal samples (˜100-200 mg) were collected daily for 12 days. aTC (100 μg/mL) was administered in drinking water for 12 hours after fecal collection on day 1. Fecal samples were homogenized in 1 mL of 1× tris-buffered saline (TBS) with a single 5 mm stainless steel bead using a bead beater (BioSpec Products) at 26° C. for 1 minute on the high setting, followed by vortexing at top speed for 8 minutes. Samples were then centrifuged at 500×g for 1 minute to pellet fibrous and insoluble matter. […]
Bacterial cells (collected and stored as described above) were lysed through one round of freeze-thaw followed by nutation for 10 minutes at 26° C. […] Quantification of the enzyme reaction product, p-nitrophenol (pNP), was identical to the LC-MS analysis of aTC described above, but with reduced injection volume (5 μL) and methanol replacing acetonitrile as solvent B for the reversed phase chromatography. […] Linear fit values were normalized to amount of protein in the cellular lysates added to each reaction, which was determined by Bradford. […]

[1] = in vivo; cited from earlier work
[2] = test system: Bt::tetR P1TDP^GH023-NanoLuc; experiment: Fecal luminescence in monocolonized gnotobiotic mice; type: in vivo
Method: Germ-free Swiss Webster mice were orally gavaged with 1×10^9 CFU of Bt::tetR P1TDP^GH023-NanoLuc and colonization was allowed to stabilize for at least 7 days prior to the start of the experiment. Fecal pellets were collected every day, and groups of mice were given aTC in the drinking water at various concentrations for 48 hours after stool collection on Day 3 and Day 17. Mice belonging to the same treatment group were co-housed for the duration of the experiment. To obtain samples for luminescence production, fecal pellets and intestinal lumen (˜100-200 mg) were homogenized in 1 mL of 1×PBS with a single 5 mm stainless steel bead using a bead beater (BioSpec Products) at 26° C. for 1 minute on the high setting, followed by vortexing at top speed for 8 minutes. Samples were centrifuged at 500×g for 1 minute to pellet fibrous and insoluble matter. The supernatant was used for CFU determination by plating dilutions on BHI-blood agar plates containing gentamicin and erythromycin, and 500 μL was used for luminescence measurements (described below).
The 500 μL collected from the resuspended fecal supernatant was centrifuged at 21,130×g for 3 minutes to pellet bacterial cells, which were then resuspended in 50 μL 1× BugBuster (Novagen) in 1×PBS and lysed by one round of freeze-thaw and 10 minutes of nutation at 26° C. Samples were centrifuged at 21,130×g for 10 minutes at 4° C., and 10 μL of the supernatant was mixed with an equal volume of NanoLuc Reaction Buffer to induce luminescence production. Luminescence was measured after a 5 minute incubation at 26° C. on a plate reader (BioTek Synergy H1) with an integration time of 1 second at a gain setting of 100. Luminescence values were normalized to colony forming units (CFUs) determined by dilution plating of the resuspended fecal supernatant on BHI-blood agar plates containing gentamicin and erythromycin.

Structure (SMILES): Cc1c2c(c(O)c3c(O)cccc13)C(=O)[C@]1(O)C(=O)C(C(N)=O)=C(O)[C@@H](N(C)C)[C@@H]1C2 [aTC, Anhydrotetracycline]
- sialidase activity again undetectable after aTC removal (sialidase BT0455): 4 days
- concentration in drinking water that does not adversely affect mouse health [1]: 100 µg/mL
- impact on B. thetaiotaomicron stability in the gut ([2]; CFU): do not impact B. thetaiotaomicron stability in the gut
- aTC concentration at which detectable responses start ([2]; drinking water, within 24 hours): 0.2 to 0.5 µg/mL
- complete repression after aTC removal ([2]; monocolonized mice): 9 days
- increase of luminescence in fecal pellets ([2]; monocolonized mice, within 24 hours of aTC addition): ~1,000 fold
- range of commensal gene expression modulated inside the gut by varying aTC concentrations ([2]; mouse, in vivo): 3 orders of magnitude
- aTC concentration providing maximal gene induction in vivo ([2]; sigmoidal fit): 100 µg/mL
- growth of Bacteroides in aTC (Bacteroides): grow at wildtype rates
